Experimental findings from patent publication US6767889B1, “Inhibition of angiogenesis by high molecular weight kininogen and peptide analogs thereof” (Temple University of the Commonwealth System of Higher …, priority 1998, dated 2004) are described below.

No end group written: not given here.

For the test, the system named is human umbilical vein endothelial cells (HUVEC).

A word on the IC50: it is the concentration that inhibits the measured activity by half. A high value points to lower potency. For the substance “HKNKGKKNGKHNGWKT-OH [SEQ ID NO:9, His-Lys-Asn-Lys-Gly-Lys-Lys-Asn-Gly-Lys-His-Asn-Gly-Trp-Lys-Thr]”, 14 µM corresponded to half-maximal inhibition (IC50). The substance “GHGHGHGKHKNKGKKN-OH [SEQ ID NO:8, Gly-His-Gly-His-Gly-His-Gly-Lys-His-Lys-Asn-Lys-Gly-Lys-Lys-Asn]” registered an IC50 of 8 µM.
